Assay results reported in patent publication US20070048377A1, “Drug compositions containing controlled release hypromellose matrices” (priority 2005, published 2007).
Structures can show the parent of a compound that is named as a salt.

Assays:
[1] = Verapamil Hydrochloride and PVAP chemical interaction (precipitate on combining saturated methanol solutions); type: physicochemical; conditions: 50 grams of each combined
From the text: To determine that the influence on the drug release is not due to the chemical interaction between Verapamil HCL and PVAP, following investigation was made.
• a. Purpose—To determine if change in drug release is due to polymer drug interaction, where increasing PVAP would potentially cause decreased drug release due to binding with the drug. • b. Method— • i. Dissolved 20 grams of Verapamil Hydrochloride in 52 grams of methanol to form a saturated solution. • ii. Dissolved 10 grams of PVAP in 52 grams of methanol to form a saturated solution. • iii. A clear solution was obtained for each sample. • iv. 50 grams of each solution was combined and examined for the presence of a precipitate. • v. […] Conclusion • A lack of chemical interaction has been shown between PVAP and the drug which is contra to some of previously published studies on the interactions of Verapamil HCl with enteric polymers. It also rules out that the reduction of drug release by using PVAP is due to a chemical interaction with Verapamil HCl.

[2] = Viscosity investigation (Brookfield viscometer DV-II+); type: physicochemical
From the text: • a. Dispersion Characterization • PVAP, HPMC, or Verapamil HCl was dispersed in 0.1N HCl or phosphate buffer, pH 6.8. Viscosity was characterized neat and in binary or tertiary mixtures. • b. Dry Blending Mixtures Characterization • i.

COc1ccc(CCN(C)CCCC(C#N)(c2ccc(OC)c(OC)c2)C(C)C)cc1OC (stereo not drawn) [Verapamil HCl - 48% solution, Verapamil Hydrochloride]
presence of a precipitate (chemical interaction with PVAP) [1]: no precipitate formed | Viscosity ([2]; 0.1N HCl): 50.8 cP | Viscosity ([2]; Phosphate Buffer, pH 6.8): 12.4 cP
